SMILES strings stand for the structures.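 These data come from cells grown in 96-well plates and exposed to compound for 48 hours at five concentrations. Abbreviation: GI50, concentration required for 50% inhibition of growth. TGI denotes the concentration required for complete inhibition of growth.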

Experiment in all cases: NCI-60 cell line screen, 48 h
Assay [1] relates to PC-3 prostate.
Assay [2] relates to K-562 leukemia.
Assay [3] concerns SK-MEL-28 melanoma.
The subject of assay [4] is OVCAR-3 ovarian.
Assay [5] concerns LOX IMVI melanoma.
The test system of assay [6] is IGROV1 ovarian.
The test system of assay [7] is T-47D breast.
Assay [8] has as its system MCF7 breast.
The test system of assay [9] is NCI-H23 lung.
The subject of assay [10] is SW-620 colon.

With `Clc1ccc(Cc2nc3cc4ccccc4cc3[nH]2)cc1Cl`, the TGI turned out to be 43.4 µM in assay [1]; 83 µM in assay [2]; 29.4 µM in [3]; 61 µM in assay [4]; 60.8 µM in assay [5]; 16.7 µM in [6]. The TGI in [7] amounted to 39.7 µM; in assay [8], 67.3 µM; in [9], 71.6 µM; in [10] it was 41.3 µM.

Regarding `O=c1[nH]nc(-c2cccc([N+](=O)[O-])c2)[nH]1`, the TGI in assay [1], in assay [2], in assay [3], in assay [4], in assay [5] and in assay [6] was > 100 µM in each case. In addition, the TGI in assay [7], in [8], in assay [9] and in assay [10] was > 100 µM in each case.

For the molecule `CC(C)C(Sc1nc(N)nc2nc[nH]c12)C(=O)O` (stereo not given), the TGI in [1], in assay [2], in [3], in [4], in assay [5] and in [6] was > 100 µM each time. Also, the TGI in assay [7], in [8], in [9] and in assay [10] was > 100 µM each time.

Regarding `Cc1n[nH]c(=O)c2c3c([nH]c12)-c1ccccc1C3`, the TGI in [1], in assay [2], in assay [3], in [4], in assay [5] and in assay [6] was > 100 µM throughout. Also, the TGI in assay [7], in assay [8], in [9] and in assay [10] was > 100 µM each time.

With `NC1=Nc2ncccc2C(=O)NN1`, the TGI in assay [1], in [2], in assay [3], in assay [4], in assay [5] and in [6] was > 10 µM throughout. The TGI in assay [7], in assay [8], in assay [9] and in assay [10] was > 10 µM each time.

For `CC(C)=CC(=O)c1[nH]c2ccccc2c1CC(=O)NCCc1cnc[nH]1`, the TGI in [1], in [2], in assay [3], in [4], in assay [5] and in assay [6] was > 100 µM throughout. Besides, the TGI in [7], in assay [8], in assay [9] and in assay [10] was > 100 µM each time.

For `O=C(NCC(O)COc1ccccc1)c1ccccc1O` (stereo not given), the TGI in assay [1], in assay [2], in [3], in [4], in [5] and in assay [6] was > 100 µM each time. In addition, the TGI in [7], in assay [8], in assay [9] and in assay [10] was > 100 µM in each case.

`COc1cccc(C2c3cc4c(cc3OC(NNS(=O)(=O)c3ccc(C)cc3)C2C)OCO4)c1O` (stereo not given): the TGI was 65.8 µM in assay [1]; 39.4 µM in assay [2]; 78.8 µM in [3]; 57.5 µM in assay [4]; > 100 µM in [5]; > 100 µM in assay [6]. For the same molecule, the TGI in [7] was > 100 µM; in assay [8] it was 51.2 µM; in assay [9], > 100 µM; in assay [10], > 100 µM.

Regarding `COc1cc2c(cc1C)NC(=O)/C2=C/c1c(Cl)[nH]c2ccccc12`, the TGI in assay [1] is 18.3 µM; in [2] it was > 100 µM; in [3], 20.8 µM; in [4], 6.34 µM; in [5] it was 17.9 µM; in assay [6] it was 16.8 µM. In addition, the TGI was 34.1 µM in [7], 16.1 µM in [8], 23.7 µM in assay [9] and 19.6 µM in assay [10].

In the case of `C(/C=C(\Nc1ccccc1)c1ccc2ccccc2c1)=Nc1ccccc1`, the TGI in assay [1] amounted to 11.8 µM; in assay [2], 4.22 µM; in assay [3], 0.961 µM; in assay [4] it was 4.08 µM; in [5] it was 5.4 µM; in [6], 13.7 µM. For the same molecule, the TGI in [7] was determined as 12.9 µM; in assay [8] it was 15.7 µM; in [9], 6.63 µM; in assay [10], 17.3 µM.

Consider `O=C(c1ccccc1)c1nn(-c2cccc(Cl)c2)c2nc3nc(-c4ccccc4)cc(=O)n3nc12`, for which the GI50 in [1], in assay [2], in assay [3], in assay [4], in assay [5] and in [6] was > 25 µM each time. Moreover, the GI50 in [7], in [8], in assay [9] and in assay [10] was > 25 µM throughout. Further, the TGI in assay [1], in assay [2], in [3], in [4], in [5] and in assay [6] was > 25 µM throughout. Besides, the TGI in assay [7], in assay [8], in assay [9] and in assay [10] was > 25 µM throughout.

These data come from PubChem BioAssay (NCI).
